Reference: US20050004179A1, “Methods and materials for treating, detecting, and reducing the risk of developing Alzheimer's Disease” (priority 2003, published 2005)

What was measured:
[1] = Body weights and food consumption on rosiglitazone-supplemented diet (tolerability); format: in vivo, mouse
Source text: (§1) Male Tg2576 mice and non-transgenic littermates were purchased from Taconic Farms (Germantown, N.Y.). The Tg2576 mice overexpress the 695-isoform of the human amyloid precursor protein containing a double mutation originally identified in a large Swedish kindred (familial AD); spatial learning and memory deficits are evident at 9-11 months of age, prior to the formation of mature amyloid plaques (Kawarabayashi et al., “Age-Dependent Changes in Brain, CSF, and Plasma Amyloid β Protein in the Tg2576 Transgenic Mouse Model of Alzheimer's Disease,” J. Neurosci., 21:372-381 (2001) and Westerman et al., “The Relationship Between Aβ and Memory in the Tg2576 Mouse Model of Alzheimer's Disease.,” J. Neurosci., 22:1858-1867 (2002), which are hereby incorporated by reference). Mice were individually housed in ventilated microisolator cages.
The following supplemented diet was used. Tablets of rosiglitazone maleate (Avandia™, GlaxoSmithKline) were provided by the Creighton University Diabetes Center. The tablets were pulverized and mixed with the AIN-93G purified rodent diet at a final dose of 30 mg/kg of food (Dyets, Inc.). This dose was chosen based on the results of studies in rats using a diet supplemented with rosiglitazone (Diep et al., “Structure, Endothelial Function, Cell Growth, and Inflammation in Blood Vessels of Angiotensin II-Infused Rats: Role of Peroxisome Proliferator-Activated Receptor-γ,” Circulation, 105:2296-2302 (2002), which is hereby incorporated by reference. Unmodified AIN-93G pellets were purchased as the control diet (Dyets, Inc.). The mice were placed on the diets at 9 months of age.
To provide evidence for a relationship between insulin resistance and aberrant stress responses of Tg2576 mice, the animals were subjected to a diet containing the thiazolidinedione, rosiglitazone, in order to increase insulin sensitivity. The thiazolidinediones act as agonists of peroxisome proliferator-activated receptor-γ (“PPARγ”), which is a ligand-inducible transcription factor that regulates glucose and lipid metabolism (Desvergne et al., “Peroxisome Proliferator-Activated Receptors: Nuclear Control of Metabolism,” Endocr. Rev., 20:649-688 (1999), which is hereby incorporated by reference). The agonists of PPARγ attenuate insulin resistance by improving peripheral insulin sensitivity, and such agonists are currently being used clinically in the management of type 2 diabetes (Wagstaff et al., “Rosiglitazone: A Review of its Use in the Management of Type 2 Diabetes Mellitus,” Drugs 62:1805-1837 (2002), which is hereby incorporated by reference). […] More particularly, the following Table 1 summarizes body weights and food consumption for wild-type mice on the regular diet (Wt; n=7), Tg2576 mice on the diet supplemented with rosiglitazone maleate (Tr, AV; n=7), and for Tg2576 mice on the regular diet (Tr, C; n=5). Data are reported as means and standard deviations for the indicated weeks.

Tg2576 mice [2] = experiment: Spatial learning and memory, 8-arm radial maze; settings: 15 weeks on drug-supplemented diet, approximately 4 mg/kg/day, FIG. 6
Tg2576 mice [3] = format: in vivo
Source text: as §1
The following supplemented diet was used. Tablets of rosiglitazone maleate (Avandia™, GlaxoSmithKline) were provided by the Creighton University Diabetes Center. The tablets were pulverized and mixed with the AIN-93G purified rodent diet at a final dose of 30 mg/kg of food (Dyets, Inc.). […]

Tg2576 mice [4] = experiment: Stress response: serum corticosterone after overnight fasting; format: in vivo, mouse; settings: FIG. 5
Source text: as §1
Corticosterone and insulin were measured using the following procedures. For serum preparation, tail bleedings were carried out under a heating lamp, and the blood was collected into MICROTAINER™ Brand Tubes (Becton Dickinson, Franklin Lanes, N.J.). After allowing the blood to clot for 30-40 min, samples were centrifuged for 90 sec at 6000 g and stored at −80° C. until use. Serum corticosterone levels were measured using an enzyme immunoassay kit (Assay Designs, Inc., Ann Arbor, Mich.) with a 1 μl aliquot of each sample diluted 1:100 with assay buffer. The sensitivity of the assay was 26.99 pg/ml. Serum insulin levels were determined using the Ultra Sensitive Rat Insulin ELISA kit (Crystal Chem, Inc., Downers Grove, Ill.) using 5 μl of undiluted sample and mouse insulin standard. The sensitivity of the assay under these conditions was 100 pg/ml. All samples were measured in duplicate for both assays. Plates were read using the Bio-Tek ELx800UV Universal Microplate Reader.
The following supplemented diet was used. Tablets of rosiglitazone maleate (Avandia™, GlaxoSmithKline) were provided by the Creighton University Diabetes Center. […]

Tg2576 mice [5] = experiment: Insulin response: insulin-induced decline in blood glucose levels; format: in vivo, mouse
Source text: as §1
Insulin was administered and glucose was measured using the following procedures. A stock of human insulin (recombinant, 28.7 U.S.P. units/mg; Sigma) was prepared by dissolving 1 mg of powder in 1 ml of dH20 containing 1% glacial acetic acid. A 1:150 dilution in dH20 was used as the injection stock. Mice were administered the insulin solution by intraperitoneal injection. […]
Insulin was administered to non-fasted Tg2576 and wild-type mice at 0.75 U/kg, and blood glucose levels were monitored. […]

[6] = 10-month-old Tg2576 mice, supplemented diet 4 weeks

## CN(CCOc1ccc(CC2SC(=O)NC2=O)cc1)c1ccccn1.O=C(O)/C=C\C(=O)O (centres unmarked) [rosiglitazone, rosiglitazone maleate]
[1]; mice, diet 30 mg/kg of food
  Tolerability of the diet containing rosiglitazone: well tolerated
[1]; mouse, in vivo
  Amount of rosiglitazone-supplemented food consumed over time: decreased over time
  Weight of mice, Week 1: 26.3 ± 3.2 g
  Weight of mice, Week 4: 26.2 ± 3.1 g
  Weight of mice, Week 7: 27.1 ± 3.3 g
Tg2576 mice [2]
  Number of reference memory errors versus control Tg2576 mice (Tr,C): fewer than the number of reference memory errors made by Tg2576 not given the drug
  Number of reference memory errors versus wild-type mice: as many reference memory errors as the wild-type mice
Tg2576 mice [3]; 7 Tg2576 mice on rosiglitazone-supplemented diet (2 of 7 on unsupplemented diet died)
  Deaths in the course of the study: None
Tg2576 mice [3]; Tg2576 mice on rosiglitazone-supplemented diet
  Observed behaviour on handling: calmer and easier to handle
Tg2576 mice [4]; [6]
  Serum corticosterone levels after overnight fasting versus wild-type mice: not significantly different
  Serum corticosterone levels following overnight fasting versus Tg2576 mice on regular diet: well below the levels reached in Tg2576 mice on the regular diet
Tg2576 mice [4]; Tg2576 mice
  Effect on stress response (figure legend): normalizes the stress response
Tg2576 mice [5]; 10-month-old Tg2576 mice, 4 weeks on diet, insulin 0.75 U/kg
  Insulin response of Tg2576 mice on unsupplemented diet versus Tg2576 mice on supplemented diet: much weaker insulin response
Tg2576 mice [5]; FIGS. 4A and 4B, Tg2576 mice, supplemented diet for 4 weeks
  Effect on insulin response (figure legend): normalizes the insulin response
